Test results as given in ChEMBL document CHEMBL3046007, “Isonicotinic acid hydrazide derivatives: synthesis, antimicrobial activity, and QSAR studies” (Med Chem Res, 2012).
In brackets after ≈: the same amount, converted by molar mass.

Key:
[1] = system: Aspergillus niger; experiment: Antimicrobial activity against Aspergillus niger after 7 days by serial dilution method; format: functional
[2] = system: Candida albicans; experiment: Antimicrobial activity against Candida albicans after 48 hr by serial dilution method; format: functional
[3] = system: Escherichia coli; experiment: Antimicrobial activity against Escherichia coli after 24 hr by serial dilution method; format: functional
[4] = system: Staphylococcus aureus; experiment: Antimicrobial activity against Staphylococcus aureus after 24 hr by serial dilution method; format: functional
[5] = system: Bacillus subtilis; experiment: Antimicrobial activity against Bacillus subtilis after 24 hr by serial dilution method; format: functional
[6] = Cytotoxicity against Homo sapiens (human) MT4 cells; format: cell-based
[7] = system: Human immunodeficiency virus 2; experiment: Antiviral activity against Human immunodeficiency virus type 2 (ISOLATE ROD) infected human MT4 cells assessed as inhibition of virus-induced cytopathicity; format: functional, organism-based; conditions: Human immunodeficiency virus 2, ISOLATE ROD
[8] = system: Human immunodeficiency virus 1; experiment: Antiviral activity against Human immunodeficiency virus 1 IIIB infected human MT4 cells assessed as inhibition of virus-induced cytopathicity; format: functional, organism-based
[9] = Cytotoxicity against Chlorocebus aethiops (African green monkey) Vero cells assessed as alteration in cell morphology; format: cell-based; conditions: chlorocebus sabaeus
[10] = system: Punta Toro virus; experiment: Antiviral activity against Punta Toro virus infected Vero cells assessed as inhibition of virus-induced cytopathicity; format: functional, organism-based
[11] = system: Coxsackievirus B4; experiment: Antiviral activity against Human coxsackievirus B4 infected Vero cells assessed as inhibition of virus-induced cytopathicity; format: functional, organism-based; conditions: Enterovirus B
[12] = system: Sindbis virus; experiment: Antiviral activity against Sindbis virus infected Vero cells assessed as inhibition of virus-induced cytopathicity; format: functional, organism-based
[13] = system: Mammalian orthoreovirus 1; experiment: Antiviral activity against Mammalian orthoreovirus 1 infected Vero cells assessed as inhibition of virus-induced cytopathicity; format: functional, organism-based; conditions: Mammalian orthoreovirus 1, Vero
[14] = system: Human respirovirus 3; experiment: Antiviral activity against Human parainfluenza virus 3 infected Vero cells assessed as inhibition of virus-induced cytopathicity; format: functional, organism-based; conditions: Human respirovirus 3, Vero
[15] = system: Respiratory syncytial virus; experiment: Antiviral activity against Respiratory syncytial virus infected human HeLa cells assessed as inhibition of virus-induced cytopathicity; format: functional, organism-based
[16] = system: Coxsackievirus B4; experiment: Antiviral activity against Human coxsackievirus B4 infected human HeLa cells assessed as inhibition of virus-induced cytopathicity; format: functional, organism-based; conditions: Enterovirus B
[17] = system: Vesicular stomatitis virus; experiment: Antiviral activity against Vesicular stomatitis virus infected human HeLa cells assessed as inhibition of virus-induced cytopathicity; format: functional, organism-based
[18] = Cytotoxicity against Homo sapiens (human) HeLa cells; format: cell-based
[19] = Cytotoxicity against Homo sapiens (human) HEL cells; format: cell-based
[20] = system: Human alphaherpesvirus 1; experiment: Antiviral activity against TK(-) aciclovir-resistant Human herpesvirus 1 strain KOS infected in human HEL cells assessed as inhibition of virus-induced cytopathicity; format: functional, organism-based; conditions: Human alphaherpesvirus 1, KOS
[21] = system: Vaccinia virus; experiment: Antiviral activity against Vaccinia virus infected human HEL cells assessed as inhibition of virus-induced cytopathicity; format: functional, organism-based; conditions: Orthopoxvirus vaccinia
[22] = system: Human alphaherpesvirus 2; experiment: Antiviral activity against Human herpesvirus 2 strain G infected human HEL cells assessed as inhibition of virus-induced cytopathicity; format: functional, organism-based; conditions: Human alphaherpesvirus 2, strain G
[23] = system: Human alphaherpesvirus 1; experiment: Antiviral activity against Human herpesvirus 1 strain KOS infected in human HEL cells assessed as inhibition of virus-induced cytopathicity; format: functional, organism-based; conditions: Human alphaherpesvirus 1, KOS

Compound: OC(Cn1cncn1)(Cn1cncn1)c1ccc(F)cc1F [FLUCONAZOLE]
- -logMIC [1]: 2.64
- -logMIC [2]: 2.64

Compound: O=C(N/N=C/c1ccccc1O)c1ccncc1 [SALINAZID]
- -logMIC [1]: 2.29
- -logMIC [2]: 2.29
- -logMIC [3]: 2.29
- -logMIC [4]: 1.98
- -logMIC [5]: 1.98
- CC50 [6]: 2.52 µg/mL (≈ 10.4 µM)
- EC50 [7]: > 2.52 µg/mL
- EC50 [8]: > 2.52 µg/mL

Compound: CCn1cc(C(=O)O)c(=O)c2cc(F)c(N3CCNCC3)cc21 [NORFLOXACIN]
- -logMIC [3]: 2.61
- -logMIC [4]: 2.61
- -logMIC [5]: 2.61

Compound: Cc1cn([C@H]2C[C@H](N=[N+]=[N-])[C@@H](CO)O2)c(=O)[nH]c1=O [ZIDOVUDINE]
- CC50 [6]: > 25 µg/mL

Compound: CCOc1cc(/C=N/NC(=O)c2ccncc2)ccc1O
- -logMIC [1]: 2.36
- -logMIC [2]: 2.36
- -logMIC [3]: 2.36
- -logMIC [4]: 2.06
- -logMIC [5]: 2.06
- MCC [9]: > 100 µg/mL
- EC50 [10]: > 100 µg/mL
- EC50 [11]: > 100 µg/mL
- EC50 [12]: > 100 µg/mL
- EC50 [13]: > 100 µg/mL
- EC50 [14]: > 100 µg/mL
- EC50 [15]: > 100 µg/mL
- EC50 [16]: > 100 µg/mL
- EC50 [17]: > 100 µg/mL
- MCC [18]: > 100 µg/mL
- MCC [19]: > 100 µg/mL
- EC50 [20]: > 100 µg/mL
- EC50 [21]: > 100 µg/mL
- EC50 [22]: > 100 µg/mL
- EC50 [23]: > 100 µg/mL
- CC50 [6]: 102 µg/mL (≈ 358 µM)
- EC50 [7]: > 102 µg/mL
- EC50 [8]: > 102 µg/mL

Compound: Cc1ccnc2c1NC(=O)c1cccnc1N2C1CC1 [NEVIRAPINE]
- CC50 [6]: > 4 µg/mL
- EC50 [7]: > 4 µg/mL

Compound: CSc1ccc(/C=N/N(C(=O)c2ccccc2)C(=O)c2ccncc2)cc1
- -logMIC [1]: 2.48
- -logMIC [2]: 2.78
- -logMIC [3]: 2.48
- -logMIC [4]: 2.18
- -logMIC [5]: 2.18
- MCC [9]: ≥ 100 µg/mL
- EC50 [10]: > 100 µg/mL
- EC50 [11]: 9 µg/mL (≈ 24 µM)
- EC50 [12]: > 100 µg/mL
- EC50 [13]: > 100 µg/mL
- EC50 [14]: > 100 µg/mL
- EC50 [15]: > 100 µg/mL
- EC50 [16]: > 100 µg/mL
- EC50 [17]: > 100 µg/mL
- MCC [18]: > 100 µg/mL
- MCC [19]: > 100 µg/mL
- EC50 [20]: > 100 µg/mL
- EC50 [21]: > 100 µg/mL
- EC50 [22]: > 100 µg/mL
- EC50 [23]: > 100 µg/mL
- CC50 [6]: 69 µg/mL (≈ 184 µM)
- EC50 [7]: > 69 µg/mL
- EC50 [8]: > 69 µg/mL

Compound: O=C(NNC(=O)c1ccc(Cl)cc1)c1ccncc1
- -logMIC [1]: 1.74
- -logMIC [2]: 2.64
- -logMIC [3]: 1.74
- -logMIC [4]: 2.34
- -logMIC [5]: 2.34
- CC50 [6]: > 120 µg/mL
- EC50 [7]: > 120 µg/mL
- EC50 [8]: > 120 µg/mL

Compound: Cc1ccc(/C=N/N(C(=O)c2ccccc2)C(=O)c2ccncc2)cc1
- -logMIC [1]: 2.44
- -logMIC [2]: 2.74
- -logMIC [3]: 2.44
- -logMIC [4]: 2.44
- -logMIC [5]: 2.14
- MCC [9]: ≥ 20 µg/mL
- EC50 [10]: > 20 µg/mL
- EC50 [11]: > 20 µg/mL
- EC50 [12]: > 20 µg/mL
- EC50 [13]: > 20 µg/mL
- EC50 [14]: > 20 µg/mL
- EC50 [15]: > 20 µg/mL
- EC50 [16]: > 20 µg/mL
- EC50 [17]: > 20 µg/mL
- MCC [18]: 100 µg/mL
- MCC [19]: > 100 µg/mL
- EC50 [20]: > 100 µg/mL
- EC50 [21]: > 100 µg/mL
- EC50 [22]: > 100 µg/mL
- EC50 [23]: > 100 µg/mL
- CC50 [6]: 42 µg/mL (≈ 122 µM)
- EC50 [7]: > 42 µg/mL
- EC50 [8]: > 42 µg/mL

Compound: NNC(=O)c1ccncc1 [ISONIAZID]
- -logMIC [1]: 2.04
- -logMIC [2]: 2.34
- -logMIC [3]: 1.74
- -logMIC [4]: 2.04
- -logMIC [5]: 1.74
